This is an account of results in publication PMC4111124, “Functional characterization of Candida albicans Hos2 histone deacetylase” (F1000Research, 2014).

Broadly, the IC50 is the point on the concentration scale where inhibition reaches its midpoint. Low values mean inhibition by little substance, high ones a need for much substance.

Experiment [1] has as its target T1, Hos2 histone deacetylase (Candida albicans, UniProt A0A1D8PJ17).
T1 construct: full length, N-terminal hexa-histidine tag, expressed in Sf9 cells
As to the kind of experiment: fluorogenic deacetylase assay with Boc-Lys(Ac)-AMC, % inhibition at […]. The class given is biochemical. Conditions: read-out: % inhibition ± SE / 10 μM.

Experiment [2] addresses T1, Hos2 histone deacetylase. The experiment can be described thus: biochemical.

Molecules are shown by their SMILES.

T1 sequence (A0A1D8PJ17 entry or part of it): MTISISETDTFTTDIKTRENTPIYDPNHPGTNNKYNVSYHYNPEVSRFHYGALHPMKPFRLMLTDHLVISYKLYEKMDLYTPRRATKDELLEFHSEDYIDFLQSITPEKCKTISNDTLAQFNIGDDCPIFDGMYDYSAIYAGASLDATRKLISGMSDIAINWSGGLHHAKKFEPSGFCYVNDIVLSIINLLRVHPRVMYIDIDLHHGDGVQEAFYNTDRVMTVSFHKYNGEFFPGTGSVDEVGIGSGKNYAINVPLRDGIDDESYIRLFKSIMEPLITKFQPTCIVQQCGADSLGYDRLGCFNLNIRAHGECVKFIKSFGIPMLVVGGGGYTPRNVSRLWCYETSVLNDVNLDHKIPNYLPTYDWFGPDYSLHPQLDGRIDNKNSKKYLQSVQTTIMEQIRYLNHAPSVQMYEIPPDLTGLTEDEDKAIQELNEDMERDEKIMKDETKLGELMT

For the compound `Nc1ccccc1NC(=O)c1ccc(CNC(=O)OCc2cccnc2)cc1` [MS-275], the inhibition at 10 µM in experiment [1] is 56.3%.

In the case of `CC(/C=C/C(=O)NO)=C\[C@@H](C)C(=O)c1ccc(N(C)C)cc1` [TSA], the midpoint of inhibition in experiment [2], the IC50, lay at 2.8 nM.
